These results are taken from patent US20030153623A1, “Solid preparation containing sparingly soluble NSAIDs” (Yamanouchi Pharmaceutical Co., Ltd., priority 1998, published 2003).

Molecules are shown by their SMILES.

What all share (assay type): physicochemical
Data set [1] can be described thus: Dissolution test, puddle method, first solution pH 1.2, various chemicals (Test Example 5). The following applies: raw material of the chemical; dissolved for 5 minutes; first solution (pH 1.2) 500 ml; 50 rpm; a dose of each chemical. How it is done:
Samples 8-1 and 8-9, and raw materials of various chemicals as the control, were examined by the puddle method in an dissolution test according to the Japanese Pharmacopoeia, and the amount of ibuprofen (μg/ml) dissolved for 5 minutes in the test was determined. The test solution used was the first solution (pH 1.2) in a disintegration test in the Japanese Pharmacopoeia, the amount of the dissolution medium was 500 ml, and the number of puddle revolutions was 50 rpm. Each sample contains a dose of each chemical.

The nature of data set [2]: Dissolution test, puddle method, first solution pH 1.2 (Test Example 4). How it is done: Samples 7-1 and 7-9, and the raw ibuprofen powder as the control, were examined by the puddle method in an dissolution test according to the Japanese Pharmacopoeia, and the amount of ibuprofen (μg/ml) dissolved for 5 minutes in the test was determined. The test solution used was a first solution (pH 1.2) in a disintegration test in the Japanese Pharmacopoeia, the amount of the dissolutuion medium was 500 ml, and the number of puddle revolutions was 50 rpm. The content of ibuprofen in every sample was 150 mg.

The nature of data set [3]: Dissolution test, puddle method, Japanese Pharmacopoeia, water (Test Example 1). The following applies: ibuprofen dissolved for 5 minutes; water 500 ml; 100 rpm; ibuprofen content 150 mg. As for the experimental part: Each sample was tested by the puddle method in an dissolution test according to the Japanese Pharmacopoeia, and the amount of ibuprofen (μg/ml) dissolved for 5 minutes in the test was determined. Water was used as the test solution, the amount of the dissolution medium was 500 ml, and the number of puddle revolutions was 100 rpm. The raw ibuprofen material, Samples 5-1 to 5-7, and Sample 6 were examined respectively in the test. The content of ibuprofen in every sample was 150 mg.

Regarding `CC(C(=O)O)c1ccc(-c2ccccc2)c(F)c1` (stereo not shown) [Flurbiprofen], in data set [1], the “Dissolved amount, Control” value was determined as 0.22 µg/mL.

On to `CC(C)Cc1ccc(C(C)C(=O)O)cc1` (stereo not shown) [Ibuprofen, ibuprofen], for which the “Solubility in first solution (pH 1.2), in words” value in data set [2] (first solution (pH 1.2) of the disintegration test) is “not dissolved”. Besides, the Dissolved amount in data set [2] (ibuprofen dissolved for 5 minutes, first solution (pH 1.2) 500 ml, 50 rpm, ibuprofen content 150 mg) was found to be 0.00 µg/mL; in data set [3], 5.7 µg/mL. For the same compound, the “Dissolved amount, Control” value in data set [1] was 0.00 µg/mL.

For `COc1ccc2c(c1)c(CC(=O)O)c(C)n2C(=O)c1ccc(Cl)cc1` [Indomethacin], the “Dissolved amount, Control” value in data set [1] turned out to be 0.09 µg/mL.

For `CC(C(=O)O)c1cccc(C(=O)c2ccccc2)c1` (stereo not shown) [Ketoprofen], the “Dissolved amount, Control” value in data set [1] is 1.57 µg/mL.

As for `CC(C(=O)O)c1ccc(CC2CCCC2=O)cc1` (stereo not shown) [Loxoprofen], the “Dissolved amount, Control” value in data set [1] stood at 101.73 µg/mL.

As to `CC(C(=O)O)c1cccc(Oc2ccccc2)c1` (stereo not shown) [Phenoprofen], the “Dissolved amount, Control” value in data set [1] was 11.47 µg/mL.

As to `CC(C(=O)O)c1ccc2c(c1)Cc1cccnc1O2` (stereo not shown) [Pranoprofen], the “Dissolved amount, Control” value in data set [1] was determined as 17.81 µg/mL.
